The numbers were not newly measured in the CATMoS acute toxicity set (Mansouri et al. 2021), which cites them from elsewhere.

Several values for one entry are separate records, joined by “and”; a condition that tells them apart may be missing. Identical values can stand only once.

The series is described as follows: rat acute oral toxicity. The settings on record: in vivo.
On to `O=C1c2ccccc2C(=O)c2c1ccc1c2[nH]c2ccc3c4ccc5c6c(ccc(c(=O)c3c21)c46)c1ccc2c(=O)c3ccccc3c3nn5c1c23`, for which the LD50 was 11200 mg/kg.

Regarding `CCCCC(CC)COCC1CO1` (stereo not drawn), the LD50 was 7800 mg/kg. As for `O=[N+]([O-])CCCO`, the median lethal dose (LD50) was 77 mg/kg. On to `CC(=O)CC(=O)Nc1ccc(Cl)cc1C`, for which the LD50 is 3500 mg/kg. As to `O=C1CCCN1c1cccc2cccnc12`, the 50% lethal dose (LD50) is 1650 mg/kg.

With `Cc1nc(Cn2cnc3c2c(=O)n(C)c(=O)n3C)no1`, the LD50 was 1550 mg/kg.

With `COCCN1C=CC(=C2C(=O)c3ccccc3C2=O)C=C1`, the LD50 was 350 mg/kg. For `COC(=O)C(c1ccccc1)C1CCCCN1` (stereo not drawn), the LD50 was 367 mg/kg and 350 mg/kg. Take `Nc1cc(Cl)c(N)cc1Cl`: the LD50 was 1750 mg/kg. For the compound `CNC(=O)Oc1cc(C(C)(C)C)cc(C(C)(C)C)c1`, the 50% lethal dose (LD50) is 1800 mg/kg.

On to `O=C1CCCC1`, for which the LD50 is 2690 mg/kg. With `CC(C)=CC1C(C(=O)OCc2ccc(C)cc2C)C1(C)C` (stereo not drawn), the LD50 was 40000 mg/kg. As for `CC(C)(OO)c1cccc(C(C)(C)OO)c1`, the LD50 is 1500 mg/kg.

`ON=CC=NO`: the LD50 is 119 mg/kg. As to `COP(N)(=S)OC`, the LD50 was 410 mg/kg.

As to `Cc1ccccc1C(C)C`, the LD50 was 2130 mg/kg. In the case of `CCCCCCCCCCCCCC[N+](C)(C)C`, the LD50 was 3900 mg/kg. Take `COc1ccc(CC(=O)O)cc1`: the LD50 was 1550 mg/kg. On to `O=C(c1cccnc1)N1CCN=C1Nc1c(Cl)cccc1Cl`, for which the 50% lethal dose (LD50) was 80 mg/kg. In the case of `CC1(C)CC(N2C(C)(C)CC(N)CC2(C)C)CC(C)(C)N1`, the LD50 was 2170 mg/kg. On to `CCOC(=O)/C=C1/SC(N2CCCCC2)C(=O)N1C` (stereo not drawn), for which the LD50 was 10200 mg/kg.

As for `Fc1ccc(-c2cccs2)cc1`, the LD50 is 500 mg/kg. With `CCC(C)=C1C(=O)N(c2ccccc2)N(c2ccccc2)C1=O`, the median lethal dose (LD50) was 2020 mg/kg. For `N#CC1(O)CCCCC1`, the LD50 was 10 mg/kg.

In the case of `NC1CCCC(N)C1` (stereo not drawn), the LD50 was 390 mg/kg. In the case of `CC(C)(C#N)/N=N/C(C)(C)C#N`, the LD50 was 100 mg/kg. Consider `O=[N+]([O-])c1ccc(OP(=O)(OCCCCl)OCCCCl)cc1`, for which the LD50 was 33 mg/kg. As to `Nc1ccc(O)c(C(=O)O)c1`, the LD50 is 2800 mg/kg. In the case of `COc1ccc(NC(=O)CC(C)=O)cc1`, the LD50 is 1700 mg/kg. As for `CC(C)OP(=S)(OC(C)C)SCn1nc(Cl)ccc1=O`, the LD50 was 190 mg/kg. Turning to `O=[N+]([O-])c1cncn1CCN1CCOCC1`, the LD50 was 1540 mg/kg. Regarding `CCC(CC)C(=O)OCCOCCOCCOC(=O)C(CC)CC`, the LD50 was 6000 mg/kg. `SCc1cnccn1`: the LD50 was 1700 mg/kg.

In the case of `BrCC=CCBr`, the LD50 was 75 mg/kg. As for `C=CC[N+](C)(C)CC=C`, the LD50 was 3000 mg/kg.

With `COC(F)(F)C(F)Cl` (stereo not drawn), the LD50 was 5130 mg/kg.

Take `COP(=S)(OC)SCOC(C)=O`: the LD50 is 93 mg/kg.

Turning to `Cc1cnccc1N`, the LD50 is 446 mg/kg. Turning to `CN1CCN(CCCN2c3ccccc3Sc3ccc(Cl)cc32)CC1`, the LD50 was 1800 mg/kg. Consider `C=CC(=O)OCCC#N`, for which the LD50 is 180 mg/kg. Take `C1=CCCCC1`: the LD50 is 1950 mg/kg.

For `Fc1c(Br)c(Br)c2nc(C(F)(F)F)[nH]c2c1Br`, the LD50 is 9.64 mg/kg. Consider `CN(C)C1CC(c2ccccc2)c2ccccc21` (stereo not drawn), for which the LD50 is 176 mg/kg. Consider `CC(=O)OC1c2c(ccc3ccc(=O)oc23)OC(C)(C)C1OC(=O)C=C(C)C` (stereo not drawn), for which the LD50 was 832 mg/kg. As for `CC(C)=CCC/C(C)=C/C#N`, the LD50 was 3100 mg/kg. In the case of `O=C1CC2(CCCC2)CC(=O)N1CCCCN1CCN(c2nsc3ccccc23)CC1`, the LD50 was 1850 mg/kg. For the compound `Fc1c(Br)c(Cl)c2nc(C(F)(F)F)[nH]c2c1Br`, the LD50 is 6.28 mg/kg. Consider `CC(C)C(=O)OC1CCC(N2CCCCC2)CC1` (stereo not drawn), for which the LD50 is 3150 mg/kg. As to `CC1NC(=O)c2ccccc2O1` (stereo not drawn), the LD50 was 1020 mg/kg. As for `CCCCNCC1COc2cccc(OCC)c2O1` (stereo not drawn), the LD50 was 348 mg/kg. For the compound `Cc1ncc(CSCc2cnc(C)c(O)c2CO)c(CO)c1O`, the LD50 is 7500 mg/kg. For `CCC1(CC)C(=O)N=C(O)NC1=O`, the LD50 is 600 mg/kg. Regarding `O=C(O)C1CCCCC1`, the LD50 was 3260 mg/kg.

As usually defined, the LD50 is the dose expected to kill half of the subjects tested.
